One series has as its system BV2 microglial cells. Here is the method:
For suppression of inflammation profiling, each peptide analog was tested at a final concentration of 0.1, […], 1, 3, 5, 10 and 25 μM in an LPS induced BV2 microglial cell release of NO and/or TNFα. […] The modification was a biotin label on the apoE peptide (biotin-[…]-amide) which allows detection with ^125I-streptavidin (ISA, Amersham).
In overview, BV-2 cells are plated in 96 well plates in complete media and then the media is replaced the next day with serum free media or reduced serum (1%) media. […] Each concentration of peptide (standard initial concentrations are 0.1, 0.5, 1, 3, 10 and 25 μM) is added to at least 6 wells of cells (e.g. 6 wells get 0.1 μM peptide, 6 wells get 0.5 μM peptide, etc.) and data are averaged from all 6 wells. […] (2001). Cell viability is also measured with an MTT assay (Laskowitz et al. 2001).

Another series relates to peritoneal macrophages. The series can be described thus: Peritoneal macrophage production of NO, TNFα and IL-6 induced by MOG or LPS/IFN-γ. Format: cell-based, mouse. Here is the method:
For this purpose, three mice with clinical scores of 0 and three with clinical scores of 4 at 30 dpi (day post-immunization) were used for preparation of peritoneal macrophage cultures. Macrophages were collected after peritoneal lavage with 3 ml heparin (10 U/ml)-containing PBS and then seeded to 96-well microplates at a density of 1×10^5 cells/well in Dulbecco's MEM containing 10% fetal bovine serum, 2 mM L-glutamine serum, 1% HEPES and 100 U/ml penicillin and 100 μg/ml streptomycin, 37° C. in a humidified incubator with 5% CO2. 24 h later, the serum-containing medium was removed and cells were washed once with serum-free medium. To examine the differentiated response of macrophage to immune stimulators, macrophages obtained from mice with clinical scores of 0 or 4 were exposed to serial concentrations of IFN-γ/LPS or MOG35-55 peptide. […] Media were collected at 45 h or 72 h, and analyzed by ELISA for […] and IL-6 or for nitric oxide (NO) as detailed below.
As the stable end product of nitric oxide release, nitrite levels in conditioned media were determined by injecting 50 μl media sample into a Sievers 280 NOA analyzer (Boulder, Colo., USA). Total protein (μg/well) was measured using the BCA method (Pierce, Rockford, Ill., USA) according to manufacturer's instructions with BSA as standard. BCA values were measured using a Molecular Devices Thermomax Microplate Reader (Menlo Park, Calif., USA) at OD562. Nitric oxide levels ere expressed as μM NO2—/mg protein.
For cytokine assays, supernatants were collected 45 h after […]/LPS or MOG treatments and quantitative ELISAs using selected pairs of monoclonal antibodies (as recommended by the manufacturer Biosource) were performed to quantify the cytokines, TNF-α and IL-6. For TNF-α ELISA, 96-well ELISA plates were pre-coated with rabbit anti-mouse polyclonal to TNF-α as capture antibodies for 18 h at 2-8° C. and then blocked for 2 h at room temperature. The wells were incubated with samples or mouse TNF-α standards. Following incubation for 2 h at room temperature, the wells were washed, after which hamster anti-mouse TNF-α biotinylated secondary antibody and horseradish peroxidase conjugate were added. Tetramethylbenzidine (TMB) solution was then added, and peroxidase-catalyzed color change was stopped by acidification with 2 NH2SO4. The plates were scanned at wavelength 450 nm and the absorbance were measured. The results are expressed as the mean concentration (pg/ml) ±SEM.
For IL-6 ELISA, rat anti-mouse monoclonal to IL-6 was used as capture antibody, and biotinylated rat anti-mouse monoclonal to IL-6 as detection antibody. The rest of procedure is identical to that of TNF-α ELISA.

Series [1] concerns mice with traumatic brain injury. Briefly: Closed head injury model of traumatic brain injury (rotorod, Morris Water Maze). Background: Falling from the rotarod earlier than controls is read as motor impairment.
Experimental: C57Bl/6J male mice (The Jackson Laboratory, ME), 12-16 weeks of age and weighing 24-32 g, are used for all experiments. Anesthesia is first induced with isoflurane in 30% O2/balance N2. The trachea is intubated and the lungs mechanically ventilated with 1.6% isoflurane in 30% O2/balance N2. Temperature is monitored with a rectal probe and maintained at 36.5° C. with a heat lamp. The right internal jugular vein is cannulated with silicone catheter. […] Intubated animals are then placed prone on a molded acrylic cast (FIG. 6A). […] The scalp is incised and the skull exposed. A concave 3 mm metallic disc is secured to the skull surface (with the concave surface in juxtaposition to the skull) by an adhesive. […] The disc is placed directly midline just caudal to bregma (FIG. 6B). […] The mice are positioned in a stereotactic frame. Although the stereotactactic frame helps to stabilize the animal and exactly calibrate the vertical displacement on impact (3 mm), ear bars are not used due to a much higher rate of skull fracture (or brainstem injury if the head rotates around the axis of the ear bars during impact). The piston is discharged at 6.8±0.2 m/s so as to impact the skull in the acrylic mold to move a maximum of approximately 3 mm (FIG. 6C). Inspired isoflurane is decreased to 0.7% immediately after impact. The scalp was infiltrated with lidocaine and closed with suture. Ophthalmic ointment was applied to the eyes for protection. The incidence of skull fracture is low (approximately 10%), as the metal disk helps to diffuse the impact, and the absence of ear bar fixation allows for displacement of the entire head. Mice were excluded if a depressed skull fracture was observed (incidence of approximately 10%). The animals are allowed to recover spontaneous ventilation then extubated. […] In these mice, arterial blood pressure, blood gas and glucose measurement at baseline, immediately after injury, and 15 minutes after injury are monitored during the recovery period.
Briefly, baseline performance on rotorod is established before the mice are intubated, the skin over the scalp reflected and a controlled cortical impact from a pneumatic impactor given on the midline. The skin is closed with surgical clips and the animals are constantly monitored until awake from anesthesia and then hourly for the next 4 hours. […] Performance on rotorod is tested at 24 hours post impaction and then every day for 5 days and data is presented as described. Groups of 12 mice are used for each compound at 0.5×MTD. […] Novel peptides and non-peptide analogs are also given by tail vein injection.
Daily Rotarod (RR) testing was used to assess short term motor and cerebellar deficit following head injury (Hamm et al., 1994). Mice were held by their tails and placed on the RR facing the wall by using gentle swinging motion while running in a constant speed mode.
The subject of series [2] is BV2 murine microglial cells. Here is the method: For Applicants preliminary work, the two most common PTDs, TAT and penetratin, were used.
Cell Culture: BV-2, a well-characterized murine microglial cell line (Bochinni, 1992), is cultured in high glucose content DMEM supplemented with 1% penicillin/streptomycin, 10% fetal calf serum, 1% nonessential amino acids, and 1% sodium pyruvate. Cells are grown to confluency; trypsinized; spun down; resuspended in serum-free OptiMEM containing 1% N2 supplement, 1% penicillin/streptomycin, 1% nonessential amino acids, and 1% sodium pyruvate; and plated at a concentration of 20,000 cells/well to remove any nonadherent cells and serum.
Supernatant is collected 24 and/or 48 h after LPS stimulation and assayed for nitrite.
Quantification of Nitric Oxide (NO): Accumulation of nitrite (stable end product of NO production) in the medium is measured by colometric Griess reagent system (Promega); the absorbance is determined at 540 nm.
Cell Viability Assay: Cell viability is measured using a nonradioactive cell viability assay (cell titer 96 AQ, Promega). The assay measures the bioreduction of MTS (3-(4,5-dimethylthiazole-2-)-5-(3-carboxymethoxyphenyl)-2-(4-sulfophenyl)-2H-tetrazolium by viable cells into formazan. The absorbance of the calorimetric assay is measured at λ 490 nm. Viability is assessed and used to normalize the nitrite data.

Series [3] concerns RAW 264.7 macrophages.
Series [4] relates to RAW 264.7 macrophages. The series can be described thus: NO production and iNOS mRNA in C. rodentium-stimulated macrophages. Format: cell-based, mouse. The text has this: RAW 264.7 cells were stimulated with French-pressed lysates of C. rodentium at a multiplicity of infection of 100. […] B, RT-PCR for iNOS.
We used bacterial lysates to more closely mimic the bacterial products to which lamina propria macrophages are likely to be exposed.

Series [5] has as its system mice receiving total body irradiation. Conditions: cited from earlier work.
Series [6] has as its system C57BL/6J mice with MOG-induced EAE. Briefly: MOG-induced experimental autoimmune encephalomyelitis (EAE). Conditions: preliminary data. On the procedure: EAE was induced in mice following the method of Feinstein et al. (Feinstein, Galea, et al. 2002) 1) two s.c. injections, one on each flank of the hind legs with 300 μg MOG35-55 peptide in 0.1 ml PBS emulsified in an equal volume of CFA containing 5 mg/ml of Mycobacterium tuberculosis H37RA (Difco, St. Louis, Mo.) were given on Day 0.2) Pertussis toxin (200 ng per mouse in 0.1 ml PBS) was given i.p. immediately and 48 h after first MOG injection. 3) a booster immunization with an identical emulsion, route of administration and location was given on Day 7.
Following the encephalitogenic challenge, mice were monitored daily and neurological impairment was evaluated by clinical score (C.S.) as follows: 0, no clinical signs of EAE; 1, limp tail; 2, flaccid tail and abnormal gait (ataxia and/or paresis of hind limbs); 3, severe hind limb paresis; 4, complete paralysis with hind body; and 5, moribund or death.
Mice were anesthetized, bled, and perfused with 25 ml PBS and 25 ml 4% paraformaldehyde in buffered PBS. Brains and spinal cords were dissected out from 3 mice with a clinical score of 0 and another 3 mice with a clinical score of 4 on day 30 post-immunization. Tissues were post-fixed in 4% paraformaldehyde for another 24 h and then stored in 1×PBS with 0.1% sodium azide. Fixed tissues were embedded in paraffin and 5 μm thick sections were cut from brain, the brain stem and three different levels of spinal cord (cervical, thoracic and lumbar). Sections were stained with hematoxylin/eosin for evidence of inflammation and Luxol fast blue (for demyelination). The severity of inflammation was evaluated using the following criteria: 0, no inflammation; 1, cellular infiltrates only in the perivascular areas and meninges; 2, mild cellular infiltrates only in parenchyma (1-10/section); 3, moderate cellular infiltrates in parenchyma (11-100/section); 4, marked cellular infiltrates in parenchyma (>100 section).
In total, 10 doses of peptides were given.

The next series in a line: in vivo. Particulars: male, C57B1/6, mouse, 0.4 mg/kg.
In a further series the test system is mice. Briefly: Maximum tolerated dose, tail vein injection. Conditions: mouse, in vivo. Here is the method:
Candidate compounds are then be screened in our closed head injury model of traumatic brain injury by intravenous dosing at 30 minutes post injury. Novel compounds are initially tested at one half their maximum tolerated dose (0.5×MTD). The maximum tolerated dose (MTD) is the dose of peptide given in a tail vein injection that results in no death of mice. Death is defined as a complete lack of breathing and complete unresponsiveness to external stimuli such as tail pinch and/or toe pinch for a period of 10 or more minutes. Animals are given an initial dose of 1 mg/kg of peptide analog or non-peptide mimetic and observed continuously for 15 minutes and then at 15 minute intervals for 2 hours and then at 1 hour intervals for 4 hours more. Animals are also observed at 24 hours post injection.
The maximum tolerated dose is the maximum dose at which no animals die at any of these observation times. As an example of this procedure, the MTD is determined empirically by initially dosing groups of 3 mice at 1 mg/kg. If this dose is tolerated, then another group of 3 mice is dosed at 3 mg/kg. If this dose is tolerated, then another group of 3 mice is dosed at 9 mg/kg, etc. If, for example, 9 mg/kg is not tolerated because 1 or more animal died, then doses in-between 3 mg/kg and 9 mg/kg are investigated until the MTD is found. Once the MTD is empirically determined, it is confirmed in another group of 7 mice for a total of 10 mice being tested at the MTD and all of which must not die to confirm that this is the MTD.

Series [7] has as its target cellular receptor bound by the apoE 133-149 peptide (on cells, 250,000 cells per well). The series can be described thus: competition with biotinylated apoE 133-149 for binding to whole cells (250,000 cells/well, 4 C), 125I-streptavidin detection.

Where two headings read alike, the source gives them in different places. No end group written: not given here.

Regarding “Ac-RQIKIWFQNRRMKWKKLRVRLASHLRKLRKRLL-NH2 (N-terminus and C-terminus assumed) [COG4502]”, the “Suppression of NO and/or TNFα release from LPS treated BV2 cells” value with BV2 microglial cells is given as “much better than the COG133 parent”. Besides, the IC50 with BV2 microglial cells (40 h) is around 10 nM; in [2], 700 nM; in [2] (read-out: Dose for fifty percent suppression of LPS-stimulated nitrite secretion, FIG. 18), around 30 nM; in series [2] (read-out: IC50 TNFα, in vitro) it was 1100 nM. The “Inhibition of cytokine production induced by MOG or LPS/IFN-γ” value in the series on peritoneal macrophages is “significantly more powerful in inhibiting cytokine production”. In addition, the “Production of NO, TNFα and IL-6 at 5 μM” value in the series on peritoneal macrophages (5 μM, MOG or LPS/IFN-γ) is “inhibited the production of NO, TNFα and IL-6 completely”. Also, the “TNFa and IL6 release from peritoneal macrophages” value in the series on peritoneal macrophages (gamma interferon and LPS, 24 hours) is “dose dependent inhibition of TNFa release and a dose dependent inhibition of IL6 release”. Moreover, the “Rotorod performance, conjugates given at varying times following TBI” value in series [1] (FIG. 20: 90 minutes following TBI) is listed as “can increase the therapeutic window of COG133”. Moreover, the “In vivo Therapeutic window time expanded?” value in series [1] (mouse, in vivo) was “Yes; tested at 4 X”. In addition, the “Increase in potency relative to COG133” value in series [2] was determined as 40 fold. Besides, the “Suppression of LPS-stimulated nitrite secretion” value in [2] was “significantly more potent than COG133”. For the same molecule, the “Suppression of NO production at 25 μM” value in [2] (25 μM) is listed as 100%. In addition, in [2] (FIG. 18 vs FIG. 16), the “Increase of efficacy of COG133 when conjugated to penetratin” value was “about 100 fold”. Also, in the series on RAW 264.7 macrophages [3], the “Concentration at which cell toxicity was noted” value was 10 µM. Moreover, in the series on RAW 264.7 macrophages [3], the “Concentration range where toxicity did not occur” value was 0.1 to 5 µM. The “NO production (nitrite levels) in macrophage supernatants” value in the series on RAW 264.7 macrophages [4] (C. rodentium lysates, COG1410 2 μM, COG4502 0.1-5 μM) is recorded as “inhibition of NO production”. Further, the “iNOS mRNA expression” value in the series on RAW 264.7 macrophages [4] (RT-PCR) is listed as “significant, concentration-dependent inhibition of iNOS mRNA expression”.

For the molecule `NCCCNCCSP(=O)(O)O` [amifostene, reference compound], the Dose reduction factor in series [5] (30 days post-irradiation, given immediately before irradiation (Hall 2000)) was 2.7.

`CC(=O)N[C@@H](CC(C)C)C(=O)N[C@@H](CCCNC(=N)N)C(=O)N[C@H](C(=O)N[C@@H](CCCNC(=N)N)C(=O)N[C@@H](CC(C)C)C(=O)N[C@@H](C)C(=O)N[C@@H](CO)C(=O)N[C@@H](Cc1c[nH]cn1)C(=O)N[C@@H](CC(C)C)C(=O)N[C@@H](CCCNC(=N)N)C(=O)N[C@@H](CCCCN)C(=O)N[C@@H](CC(C)C)C(=O)N[C@@H](CCCNC(=N)N)C(=O)N[C@@H](CCCCN)C(=O)N[C@@H](CCCNC(=N)N)C(=O)N[C@@H](CC(C)C)C(=O)N[C@@H](CC(C)C)C(N)=O)C(C)C` [COG133]: in the series with BV2 microglial cells (read-out: EC50 (50% reduction of NO or TNFα release), LPS induced BV2 cells), the EC50 (usually the midpoint of the concentration-response curve) is 3500 nM. Also, the IC50 with BV2 microglial cells (read-out: IC50, inhibition of nitric oxide release, BV2 cells, LPS for 40 hours, approximate) was around 2000 nM; in series [2] (read-out: IC50 NO, 50% suppression of NO production, normalized on cell viability), 25000 nM. Further, the “Tolerability in mice with EAE” value in series [6] is listed as “well tolerated”. In addition, in the series “in vivo”, the half-life – broadly, the time in which the quantity being followed falls by half – was found to be 8 min. The “Therapeutic Index (ratio of the MTD to the MED)” value with mice is 3.5.

B1: rIL11: rIL11 given to irradiated mice (Van der Meeren et al. 2002) (protein, UniProt P20809 22-199, looked up)
Interleukin-11: PGPPPGPPRVSPDPRAELDSTVLLTRSLLADTRQLAAQLRDKFPADGDHNLDSLPTLAMSAGALGALQLPGVLTRLRADLLSYLRHVQWLRRAGGSSLKTLEPELGTLQARLDRLLRRLQLLMSRLALPQPPPDPPAPPLAPPSSAWGGIRAAHAILGGLHLTLDWAVRGLLLLKTRL
As to B1, the “Survival rate at 30 days post-TBI” value in series [5] (8 Gy, 2 hour delay, every day for 5 days (Van der Meeren et al. 2002)) was 74%.

LRVRLASHLRKLRKRLL (not fully specified) [apoE 133-149 peptide (COG133), unlabeled]: the IC50 in series [7] was found to be 4000 nM.

The values above are taken from patent publication US20090042783A1, “APO E ANALOGS AND METHODS FOR THEIR USE” (priority 2004, published 2009).
